Test results: patent US10189863B2, “5,6-dihydro-4H-benzo[b]thieno-[2,3-d]azepine derivatives” (PULMOCIDE LIMITED, priority 2014, dated 2019)

How the values were obtained:
RSV A2 = experiment: RSV infection in mice: virus titre in lung (plaque assay); assay type: in vivo, mice (male BALB/C); settings: for Virus titre in lung, Geometric mean / Virus titre in lung, Median: mice, day 4
Method: Non-fasted mice (male BALB/C, 20-30 g) were infected intranasally with RSV A2 or virus diluent (DMEM, 2% FBS, 12.5% sucrose) under isoflurane (5% in O2) anaesthesia. The A2 strain of RSV (50 μL of 1.3×10^6 PFU/mL: final 0.65×10^5 PFU/mouse) was instilled into each nostril in a drop wise fashion alternating between the two until a volume of 50 μL was delivered. Following infection each animal was weighed on a daily basis to monitor changes. Test compounds were dissolved in 100% DMSO (at 20 mg/mL and/or 2 mg/mL), then diluted at 1:10 in isotonic saline to achieve 10% DMSO in all treatments. Formulations were then sonicated to produce a suspension. The suspension was administered intratracheally (20 μL) with a FMJ-250 PennCentury device or intranasally (40 μL) with a pipette on 1 day and 1 hr before infection (day 0), and then on days 1, 2 and 3 post infection. Four days after RSV challenge, the animals were euthanised (by intraperitoneal injection of a pentobarbitone overdose), the trachea cannulated and BALF extracted for total and differential cell counts. Following BALF collection, the right lung was removed from each animal and homogenised in ice-cold Dulbecco's modified Eagles medium (using 10 times the lung weight of DMEM containing 1% BSA and 25% sucrose) for 2×20 second bursts. The homogenate was then transferred into a sterile tube and spun at 4° C. (2000 rpm; for 5 min). The clarified homogenate was transferred to a chilled cryovial, snap frozen and stored at −80° C. The supernatants from lung homogenates were used for Plaque assay.
HEp2 cells were grown in 24-well plates (Corning) for 48 hr prior to infection in DMEM containing 10% FBS until they attained 100% confluency. Lung homogenate was thawed at RT and ten-fold serial dilutions were prepared in serum-free DMEM. The growth medium from HEp2 cells was aspirated and replaced with 300 μL of serially diluted lung homogenate and left to infect (4 hr; 37° C./5% CO2). The infectious media were aspirated and replaced with Plaque Assay Overlay (500 μL; 1% methylcellulose in MEM, 2% FBS, 1% Pen Strep, 0.5 μg/mL amphotericin B), and left for 7 days (37° C./5% CO2). Cells were fixed with ice-cold methanol for 10 min and blocked with 5% powdered milk (Marvel) in 0.05% PBS-tween (blocking buffer) for 1 hr at RT.
Anti-RSV F-protein antibody [2F7] (Abcam: ab43812) was diluted to a 1:100 concentration in blocking buffer and added to cells for 1 hr at RT with shaking. Cells were washed using PBS and then incubated with the secondary antibody (HRP conjugated goat anti-mouse secondary antibody (Dako P044701-2) diluted in 1:400 with blocking buffer) for 1 hr at RT with shaking. The secondary antibody solution was removed and cells were washed with PBS before the metal-enhanced development substrate DAB was prepared in ultra-pure water (according to manufacturer's instructions). Each well received 300 μL of development substrate (sigmaFAST D0426) until plaques were visible. Plaques were counted by eye and confirmed using light microscopy, allowing the calculation of plaque forming units per mL of lung homogenate supernatant.

[1] = test system: RSV NS-1 gene transcripts; experiment: RSV infection in cotton rats: RSV NS-1 gene transcripts in lung (qRT-PCR); assay type: in vivo, Sigmodon hispidus cotton rats; settings: for RSV NS1 gene transcript % inhibition / RSV NS1 gene transcript (/β-actin), Median: intranasal
Method: (§1) RSV Infection in Cotton Rats
(§2) Male Sigmodon hispidus cotton rats between 6 and 8 weeks of age were infected with hRSV/A/Long (ATCC, Manassas, Va.; 10^5 pfu) in a volume of 0.1 mL of sucrose stabilizing media. Test compounds were dissolved in 100% DMSO (at 3.3, 10, 33 and 100 mg/mL), then diluted at 1:10 in isotonic saline to achieve 10% DMSO in all treatments. Formulations were then sonicated to produce suspensions. The resulting suspensions were administered intranasally (50 μL) by pipette 4 hr before infection (on day 0), and then on days 1, 2 and 3 post infection. Four days after RSV challenge, the animals were euthanised and the lungs were removed. The left lobe was used for viral titration via plaque assay and the lingular lobe for RSV/A/Long NS-1 qRT-PCR and cytokine qRT-PCR.
Total RNA was also extracted from homogenized lung tissue (RNeasy purification kit; Qiagen) and a sample (1 μg) was used to prepare cDNA using QuantiTect Reverse Transcription Kit (Qiagen). For real-time PCR reactions (RSV NS-1 and RANTES genes) the QuantiFast SYBR® Green PCR Kit (Qiagen) was used in a final volume of 25 μL, with final primer concentrations of 0.5 μM. Amplifications were performed on a Bio-Rad iCycler for 1 cycle of 95° C. for 3 min, followed by 40 cycles of 95° C. for 10 sec, 60° C. for 10 sec, and 72° C. for 15 sec. Baseline cycles and cycle threshold (Ct) were calculated by the iQ5 software in the PCR Base Line Subtracted Curve Fit mode. The standard curves were developed using serially diluted cDNA sample most enriched in the transcript of interest (e.g., lungs from day 4 post-primary RSV infection). The Ct values were plotted against log10 cDNA dilution factor. These curves were used to convert the Ct values obtained for different samples to relative expression units which were then normalized to the level of β-actin mRNA (“housekeeping gene”) expressed in the corresponding sample. The mRNA levels were expressed as the geometric mean±SEM for all animals in a group.

RANTES gene expression = experiment: RSV infection in cotton rats: RANTES gene transcripts in lung (qRT-PCR); assay type: in vivo, Sigmodon hispidus cotton rats
Method: as §1, §2
Total RNA was also extracted from homogenized lung tissue (RNeasy purification kit; Qiagen) and a sample (1 μg) was used to prepare cDNA using QuantiTect Reverse Transcription Kit (Qiagen). For real-time PCR reactions (RSV NS-1 and RANTES genes) the QuantiFast SYBR® Green PCR Kit (Qiagen) was used in a final volume of 25 μL, with final primer concentrations of 0.5 μM. […] Baseline cycles and cycle threshold (Ct) were calculated by the iQ5 software in the PCR Base Line Subtracted Curve Fit mode. […] The mRNA levels were expressed as the geometric mean±SEM for all animals in a group.

[2] = intranasal, Drug Conc 0.2 mg/mL
[3] = intranasal, Drug Conc 2 mg/mL, LOQ 1.5
[4] = intratracheal, Drug Conc 0.2 mg/mL, LOQ 1.5

## Cc1cnc(N2CC3(CCOCC3)C2)c(C(=O)Nc2ccc(C(=O)N3CCc4cc(C(=O)Nc5c(C)cccc5F)sc4-c4ccccc43)cc2)c1 [Example 5, N-(2-Fluoro-6-methylphenyl)-6-(4-(5-methyl-2-(7-oxa-2-azaspiro[3.5]nonan-2-yl)nicotinamido)benzoyl)-5,6-dihydro-4H-benzo[b]thieno[2,3-d]azepine-2-carboxamide]
RSV A2; RSV A2 infected mice
  Effect on virus titre in the lungs (in words): completely inhibited virus titre
RSV A2; [2]
  Virus titre in lung, Geometric mean: 2.4 log PFU/lung
  Virus titre in lung, Median: 2.5 log PFU/lung
RSV A2; [3]
  Virus titre in lung, Geometric mean: <1.5^2 log PFU/lung
  Virus titre in lung, Median: <1.5^2 log PFU/lung
RSV A2; [4]
  Virus titre in lung, Geometric mean: <1.5^2 log PFU/lung
  Virus titre in lung, Median: <1.5^2 log PFU/lung
[1]
  Effect on RSV NS-1 gene transcripts (in words): dose-dependent inhibition
[1]; Drug Conc 0.33 mg/mL
  RSV NS1 gene transcript % inhibition: 55%
  RSV NS1 gene transcript (/β-actin), Median: 2.0 /β-actin
[1]; Drug Conc 1.0 mg/mL
  RSV NS1 gene transcript % inhibition: 64%
  RSV NS1 gene transcript (/β-actin), Median: 1.6 /β-actin
[1]; Drug Conc 3.3 mg/mL
  RSV NS1 gene transcript % inhibition: 77%
  RSV NS1 gene transcript (/β-actin), Median: 1.0 /β-actin
[1]; Drug Conc 10 mg/mL
  RSV NS1 gene transcript % inhibition: 77%
  RSV NS1 gene transcript (/β-actin), Median: 1.0 /β-actin
RANTES gene expression
  Effect on RANTES transcripts in lung (in words): dose-dependent inhibition
